Test results published in US20230098254A1, “SCUTELLARIAE RADIX COMPOUNDS AND USE THEREOF FOR INHIBITING OXIDATIVE PHOSPHORYLATION PATHWAY OF MITOCHONDRIA” (priority 2020, published 2023).
Like-named read-outs stand apart in the source and are kept apart here.

Tests used:
[1] = tested on: G-361; assay: Cell viability CellTiter-Glo, G-361; type: cell-based; settings: Homo sapiens; G-361, melanoma
Description: (§1) Cell viability was measured by using the Promega CellTiter-Glo kit, the kit reflected cell viability by directly measuring intracellular ATP content. Different cancer cells were cultured in culture medium, and the 50% inhibitory concentration IC50 of the compound SJ2858 was measured by Promega CellTiter-Glo kit. The name source and culture condition of each tumor cell line were as follows:
Cell line G-361 (ATCC, No. CRL-1424) was cultured in McCoy's 5a medium containing 10% fetal bovine serum (+P/S).

[2] = tested on: SU-DHL-2; assay: Cell viability CellTiter-Glo, SU-DHL-2; type: cell-based; settings: Homo sapiens; SU-DHL-2, lymphoma
Description: as §1
Cell line SU-DHL-2 (ATCC, No. CRL-2956) was cultured in RPMI1640 medium containing 10% fetal bovine serum (+P/S);

[3] = tested on: 22RV1; assay: Cell viability CellTiter-Glo, 22RV1; type: cell-based; settings: Homo sapiens; 22RV1, prostate cancer
Description: as §1
Cell line 22RV1 (ATCC, No. CRL-2505) was cultured in RPMI1640 medium containing 10% fetal bovine serum (+P/S);

[4] = tested on: NCI-H1155; assay: Cell viability CellTiter-Glo, NCI-H1155; type: cell-based; settings: Homo sapiens; NCI-H1155, lung cancer
Description: as §1
Cell line NCI-H1155 (ATCC, No. CRL-5818) was cultured in serum-free ACL-4 medium (+P/S);

[5] = tested on: MDA-MB-453; assay: Cell viability CellTiter-Glo, MDA-MB-453; type: cell-based; settings: Homo sapiens; MDA-MB-453, breast cancer
Description: as §1
Cell line MDA-MB-453 (ATCC, No. HTB-131) was cultured in Leibovitz's L-15 medium containing 10% fetal bovine serum (+P/S);

[6] = tested on: ATN-1; assay: Cell viability CellTiter-Glo, ATN-1; type: cell-based; settings: Homo sapiens; ATN-1, leukemia
Description: as §1
Cell line ATN-1 (RIKEN, No. RBRC-RCB1440) was cultured in RPMI1640 medium containing 10% fetal bovine serum and 0.1 mM NEAA (+P/S);

[7] = tested on: G-401; assay: Cell viability CellTiter-Glo, G-401; type: cell-based; settings: Homo sapiens; G-401, kidney cancer
Description: as §1
Cell line G-401 (ATCC, No. CRL-1441) was cultured in McCoy's 5a medium containing 10% fetal bovine serum (+P/S);

[8] = tested on: GB-1; assay: Cell viability CellTiter-Glo, GB-1; type: cell-based; settings: Homo sapiens; GB-1, brain cancer
Description: as §1
Cell line GB-1 (JCRB, No. IFO50489) was cultured in DMEM medium containing 10% fetal bovine serum (+P/S);

[9] = tested on: OCI-AML-4; assay: Cell viability CellTiter-Glo, OCI-AML-4; type: cell-based; settings: OCI-AML-4, leukemia
Description: as §1
Cell line OCI-AML-4 (DSMZ, No. ACC-729) was cultured in alpha-MEM medium containing 20% fetal bovine serum and 20% volume fraction of 5637 cell line adjusted medium (+P/S);

[10] = tested on: SF126; assay: Cell viability CellTiter-Glo, SF126; type: cell-based; settings: Homo sapiens, SF-126; SF126, brain cancer
Description: as §1
Cell line SF126 (JCRB, No. IFO50286) was cultured in EMEM medium containing 10% fetal bovine serum (+P/S);

[11] = tested on: OCI-AML-5; assay: Cell viability CellTiter-Glo, OCI-AML-5; type: cell-based; settings: Homo sapiens; OCI-AML-5, leukemia
Description: as §1
Cell line OCI-AML-5 (DSMZ, No. ACC-247) was cultured in alpha-MEM medium containing 20% fetal bovine serum and 20% volume fraction of 5637 cell line adjusted medium (+P/S);

[12] = tested on: HCC15; assay: Cell viability CellTiter-Glo, HCC15; type: cell-based; settings: HCC15, lung cancer
Description: as §1
Cell line HCC15 (KCLB, No. 70015) was cultured in RPMI1640 medium containing 10% fetal bovine serum (+P/S);

[13] = tested on: 786-O; assay: Cell viability CellTiter-Glo, 786-O; type: cell-based; settings: Homo sapiens, 786-0, kidney cancer
Description: as §1
Cell line 786-O (ATCC, No. CRL-1932) was cultured in RPMI1640 medium containing 10% fetal bovine serum (+P/S);

[14] = tested on: OCI-AML-3; assay: Cell viability CellTiter-Glo, OCI-AML-3; type: cell-based; settings: Homo sapiens; OCI-AML-3, leukemia
Description: as §1
Cell line OCI-AML-3 (DSMZ, No. ACC-582) was cultured in RPMI1640 medium containing 20% fetal bovine serum (+P/S);

[15] = tested on: COLO 320HSR; assay: Cell viability CellTiter-Glo, COLO 320HSR; type: cell-based; settings: Homo sapiens, intestinal cancer
Description: as §1
Cell line COLO 320HSR (ATCC, No. CCL-220.1) was cultured in RPMI1640 medium containing 10% fetal bovine serum (+P/S);

[16] = tested on: A-375; assay: Cell viability CellTiter-Glo, A-375; type: cell-based; settings: Homo sapiens; A-375, melanoma
Description: as §1
Cell line A-375 (ATCC, No. CRL-1619) was cultured in DMEM medium containing 10% fetal bovine serum (+P/S);

[17] = tested on: CCRF-CEM; assay: Cell viability CellTiter-Glo, CCRF-CEM; type: cell-based; settings: Homo sapiens, leukemia
Description: as §1
Cell line CCRF-CEM (ATCC, No. CCL-119) was cultured in RPMI1640 medium containing 10% fetal bovine serum (+P/S);

[18] = tested on: Daoy cell; assay: Cell viability, Promega CellTiter-Glo, Daoy cell; type: cell-based, human; settings: Homo sapiens, Daoy, read-out: IC50 of cell viability inhibition
Description: Cell viability was detected by using the Promega CellTiter-Glo kit, the kit reflected cell viability by directly measuring intracellular ATP content. […] Daoy cell and NCI-H82 cell were cultured in DMEM containing 10% FBS (plus p/s).

[19] = tested on: G-402; assay: Cell viability CellTiter-Glo, G-402; type: cell-based; settings: Homo sapiens; G-402, kidney cancer
Description: as §1
Cell line G-402 (ATCC, No. CRL-1440) was cultured in McCoy's 5a medium containing 10% fetal bovine serum (+P/S);

[20] = tested on: MIA PaCa-2; assay: Cell viability CellTiter-Glo, MIA PaCa-2; type: cell-based; settings: Homo sapiens; MIA PaCa-2, pancreatic cancer
Description: as §1
Cell line MIA PaCa-2 (ATCC, No. CRL-1420) was cultured in DMEM medium containing 10% fetal bovine serum (+P/S);

[21] = tested on: D283 Med; assay: Cell viability CellTiter-Glo, D283 Med; type: cell-based; settings: Homo sapiens, brain cancer
Description: as §1
Cell line D283 Med (ATCC, No. HTB-185) was cultured in EMEM medium containing 10% fetal bovine serum (+P/S);

SMILES: O=c1cc(-c2ccccc2)oc2cc(O)c(O)c(O)c12 [Compound SJ2858, baicalein]
- IC50 [1]: 33.6 µM
- IC50 [2]: 6.2 µM
- IC50 [3]: 25.9 µM
- IC50 [4]: 19.6 µM
- IC50 [5]: 75.3 µM
- IC50 [6]: 25.4 µM
- IC50 [7]: 12.3 µM
- IC50 [8]: 12.4 µM
- IC50 [9]: 24.6 µM
- IC50 [10]: 14 µM
- IC50 [11]: 45.1 µM
- IC50 [12]: 18.9 µM
- IC50 [13]: 10.6 µM
- IC50 [14]: 62.3 µM
- IC50 [15]: 17.8 µM
- IC50 [16]: 10.6 µM
- IC50 [17]: 14.7 µM
- IC50 ([18]; Daoy cell with CSA (1.5 μM mPTP inhibitor)): 13.2 µM
- IC50 ([18]; Daoy cell without CSA (active mPTP)): 35.2 µM
- IC50 [19]: 4.2 µM
- IC50 [20]: 19.7 µM
- IC50 [21]: 12.9 µM
